In patent US20240368122A1, “JAK2 INHIBITORS AND METHODS OF USE THEREOF” (RELAY THERAPEUTICS, INC., priority 2021, published 2024):

What was measured:
[1] = molecular target: T1, JAK2 JH2 WT (V536-D812) [W659A, W777A, F794H solubilizing mutations] (Homo sapiens, UniProt O60674, F794H/W659A/W777A); test: Surface Plasmon Resonance (SPR) binding assay, JAK2 JH2 domain; conditions: SPR, JAK2 JH2 domain
T1 construct: **JAK2 JH2 WT (V536-D812) [W659A, W777A, F794H solubilizing mutations]; C-thrombin-avi-His6; thrombin cleavage site (C); His6 (C); purchased Biortus
How it was run: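 Kinetics came from 1:1 fits of single-cycle runs at 20 °C: four 3-fold dilutions from 5 uM for JH1 or 500 nM for JH2, 60 s association, and 300 s or 1200 s dissociation respectively. Protein was freshly captured per compound in the presence of 10 uM stabilizer compound, with running buffer of pH 7.5 HEPES/NaCl/glycerol/DTT plus 2% DMSO.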

[2] = test system: TF1 JAK2 V617F STAT3 reporter; test: Cellular TF1 STAT3 assay (luciferase reporter), JAK2 V617F; assay type: cell-based; conditions: TF1 JAK2 V617F, read-out: Cell PD-TF1 JAK2 V617F STAT3 (IC50)
How it was run: (§1)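 TF1 V617F JAK2 reporter cells, 10k/well; 10-pt 1:3 dose response from 10 mM 1000× DMSO stock; 18-20 h, 37 °C, 5% CO2; ONE-glo, 10 min RT; luminescence. Triplicate plates, DMSO vehicle.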

[3] = test system: TF1 JAK2 V617F STAT5 reporter; test: Cellular TF1 STAT5 assay (luciferase reporter), JAK2 V617F; assay type: cell-based; conditions: TF1 JAK2 V617F, read-out: Cell PD TF1 V617F STAT5 (IC50)
How it was run: as §1

T1 sequence (O60674 536-812 W659A/W777A/F794H): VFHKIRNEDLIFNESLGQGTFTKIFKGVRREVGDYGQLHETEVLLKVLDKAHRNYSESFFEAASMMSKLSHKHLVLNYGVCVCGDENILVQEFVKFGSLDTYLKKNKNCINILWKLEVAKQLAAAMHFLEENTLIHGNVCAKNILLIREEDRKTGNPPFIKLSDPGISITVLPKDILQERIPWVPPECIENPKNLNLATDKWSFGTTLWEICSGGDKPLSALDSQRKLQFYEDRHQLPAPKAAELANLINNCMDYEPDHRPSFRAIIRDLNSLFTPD

| Structure (SMILES) | Kd [1] [nM] | IC50 [2] [nM] | IC50 [3] [nM] |
| --- | --- | --- | --- |
| CNC(=O)c1nnc(NC(=O)C2CC2)cc1Nc1cccc(-c2ccc(C(=O)N(C)Cc3ccns3)nc2)c1OC [Compound 59] | 0.01 to 10 | 500 to 5000 | 5000 to 100000 |
| CNC(=O)c1nnc(NC(=O)C2CC2)cc1Nc1cccc(-c2ccc(C(=O)N(C)Cc3cncs3)nc2)c1OC [Compound 60] | 10 to 50 | 500 to 5000 | 5000 to 100000 |
| [2H]C([2H])([2H])NC(=O)c1nnc(NC(=O)C2CC2)cc1Nc1cccc(-c2cnc(C(=O)N(C)Cc3ccn(C)n3)nc2)c1OC [Compound 62] | 0.01 to 10 | 500 to 5000 | 500 to 5000 |
| [2H]C([2H])([2H])NC(=O)c1nnc(NC(=O)C2CC2)cc1Nc1cccc(-c2cnc(C(=O)N(Cc3ccn(C)n3)C([2H])([2H])[2H])nc2)c1OC [Compound 63] | 0.01 to 10 | 500 to 5000 | 500 to 5000 |
| CNC(=O)c1nnc(NC(=O)C2CC2)cc1Nc1cccc(-c2cnc(C(=O)N(C)Cc3cn(C)nc3C(F)(F)F)nc2)c1OC [Compound 64] | 0.01 to 10 | 500 to 5000 | 50 to 500 |
| CNC(=O)c1nnc(NC(=O)C2CC2)cc1Nc1ccc(C)c(-c2cnn(C3CN(Cc4ccccn4)C3)c2)c1OC [Compound 67] | 0.01 to 10 | 500 to 5000 | 500 to 5000 |
| CNC(=O)c1nnc(NC(=O)C2CC2)cc1Nc1cccc(-c2cnn(C3CN(Cc4ncccc4F)C3)c2)c1OC [Compound 69] | 0.01 to 10 | 500 to 5000 | 500 to 5000 |
| CNC(=O)c1nnc(NC(=O)C2CC2)cc1Nc1cccc(-c2cnn(C3CN(Cc4ncccn4)C3)c2)c1OC [Compound 70] | 0.01 to 10 | 500 to 5000 | 500 to 5000 |
| CNC(=O)c1nnc(NC(=O)C2CC2)cc1Nc1cccc(-c2ccc(C(=O)N(C)Cc3cc(C#N)n(C)n3)nc2)c1OC [Compound 71] | 0.01 to 10 | 50 to 500 | 50 to 500 |
| CNC(=O)c1nnc(NC(=O)C2CC2)cc1Nc1cccc(-c2ccc(C(=O)N(C)Cc3cc(S(C)(=O)=O)ccn3)nc2)c1OC [Compound 72] | 0.01 to 10 | 50 to 500 | 50 to 500 |
| CNC(=O)c1nnc(NC(=O)C2CC2)cc1Nc1cccc(-c2ccc(C(=O)N(C)Cc3cc(S(C)(=O)=O)ccn3)cc2)c1OC [Compound 73] | 0.01 to 10 | 50 to 500 | 50 to 500 |
| [2H]C([2H])([2H])NC(=O)c1nnc(NC(=O)C2CC2)cc1Nc1cccc(-c2ccc(C(=O)N(Cc3cc(C#N)ccn3)C([2H])([2H])[2H])nc2)c1OC [Compound 74] | 0.01 to 10 | 50 to 500 | 50 to 500 |
| CNC(=O)c1nnc(NC(=O)C2CC2)cc1Nc1cccc(-c2ccc(C(=O)N(C)Cc3cn(C)nc3C(F)(F)F)nn2)c1OC [Compound 75] | 0.01 to 10 | 500 to 5000 | 500 to 5000 |
| CNC(=O)c1nnc(NC(=O)C2CC2)cc1Nc1cccc(-c2ccc(C(=O)N(C)Cc3ccn(C)n3)nn2)c1OC [Compound 76] | 0.01 to 10 | 500 to 5000 | 500 to 5000 |
| CNC(=O)c1nnc(NC(=O)C2CC2)cc1Nc1cccc(-c2cnn(C3CN(Cc4nccc(C)n4)C3)c2)c1OC [Compound 77] | 0.01 to 10 | 50 to 500 | 500 to 5000 |
| CNC(=O)c1nnc(NC(=O)C2CC2)cc1Nc1cccc(-c2cnn(C3CN(Cc4nccc(OC)n4)C3)c2)c1OC [Compound 78] | 0.01 to 10 | 500 to 5000 | 500 to 5000 |
| [2H]C([2H])([2H])NC(=O)c1nnc(NC(=O)C2CC2)cc1Nc1cccc(-c2ccc(C(=O)N(C)Cc3ccn(C)n3)nc2)c1OC [Compound 79] | 0.01 to 10 | 50 to 500 | 500 to 5000 |
| CNC(=O)c1nnc(NC(=O)C2CC2)cc1Nc1cccc(-c2ccc(C(=O)N(C)Cc3cccc(OC(F)F)c3)nc2)c1OC [Compound 80] | 0.01 to 10 | 50 to 500 | 500 to 5000 |
| CNC(=O)c1nnc(NC(=O)C2CC2)cc1Nc1cccc(-c2ccc(C(=O)N(C)Cc3ccccc3C(C)C)nc2)c1OC [Compound 81] | 10 to 50 | 500 to 5000 | 500 to 5000 |
| CNC(=O)c1nnc(NC(=O)C2CC2)cc1Nc1cccc(-c2ccc(C(=O)N(C)Cc3cc(Cl)ccc3OC)nc2)c1OC [Compound 82] | 0.01 to 10 | 500 to 5000 | 500 to 5000 |
| CCOc1ccccc1CN(C)C(=O)c1ccc(-c2cccc(Nc3cc(NC(=O)C4CC4)nnc3C(=O)NC)c2OC)cn1 [Compound 83] | 0.01 to 10 | 500 to 5000 | 500 to 5000 |
| CNC(=O)c1nnc(NC(=O)C2CC2)cc1Nc1cccc(-c2ccc(C(=O)N(C)Cc3cn4c(n3)CCCC4)nc2)c1OC [Compound 84] | 10 to 50 | 500 to 5000 | 5000 to 100000 |

| Structure (SMILES) | Kd [1] [nM] | IC50 [2] [nM] | IC50 [3] [nM] |
| --- | --- | --- | --- |
| CNC(=O)c1nnc(NC(=O)C2CC2)cc1Nc1cccc(-c2ccc(C(=O)N(C)Cc3ccc(OC(F)F)cc3)nc2)c1OC [Compound 85] | 0.01 to 10 | 500 to 5000 | 500 to 5000 |
| CNC(=O)c1nnc(NC(=O)C2CC2)cc1Nc1cccc(-c2ccc(C(=O)N(C)Cc3cn(C)cn3)nc2)c1OC [Compound 86] | 0.01 to 10 | 500 to 5000 | 500 to 5000 |
| CNC(=O)c1nnc(NC(=O)C2CC2)cc1Nc1cccc(-c2cnn(C3CN(Cc4cc(OC)ccn4)C3)c2)c1OC [Compound 88] | 0.01 to 10 | 500 to 5000 | 500 to 5000 |
| CNC(=O)c1nnc(NC(=O)C2CC2)cc1Nc1cccc(-c2cnn(C3CN(Cc4cccnc4)C3)c2)c1OC [Compound 89] | 0.01 to 10 | 50 to 500 | 50 to 500 |
| CNC(=O)c1nnc(NC(=O)C2CC2)cc1Nc1cccc(-c2cnn(C3CN(Cc4ccccc4F)C3)c2)c1OC [Compound 90] | 0.01 to 10 | 500 to 5000 | 500 to 5000 |
| CNC(=O)c1nnc(NC(=O)C2CC2)cc1Nc1cccc(-c2cnn(C3CN(Cc4cccc(F)c4)C3)c2)c1OC [Compound 91] | 0.01 to 10 | 500 to 5000 | 500 to 5000 |
| CNC(=O)c1nnc(NC(=O)C2CC2)cc1Nc1cccc(-c2ccc(C(=O)N(C)Cc3ccc(N(C)C)nc3)nc2)c1OC [Compound 93] | 10 to 50 | 500 to 5000 | 500 to 5000 |
| CNC(=O)c1nnc(NC(=O)C2CC2)cc1Nc1cccc(-c2ccc(C(=O)N(C)Cc3ccc(OC)cc3)nc2)c1OC [Compound 94] | 0.01 to 10 | 500 to 5000 | 500 to 5000 |
| CNC(=O)c1nnc(NC(=O)C2CC2)cc1Nc1cccc(-c2ccc(C(=O)N(C)Cc3ccc(F)cc3)cc2)c1OC [Compound 95] | 10 to 50 | 5000 to 100000 | 5000 to 100000 |
| CCn1cncc1CN(C)C(=O)c1ccc(-c2cccc(Nc3cc(NC(=O)C4CC4)nnc3C(=O)NC)c2OC)cn1 [Compound 96] | 0.01 to 10 | 500 to 5000 | 500 to 5000 |
| CNC(=O)c1nnc(NC(=O)C2CC2)cc1Nc1cc(F)cc(-c2ccc(C(=O)N(C)Cc3ccn(C)n3)nc2)c1OC [Compound 97] | 0.01 to 10 | 50 to 500 | 50 to 500 |
| CNC(=O)c1nnc(NC(=O)C2CC2)cc1Nc1cccc(-c2cnc(C(=O)N(C)Cc3ccon3)c(F)c2)c1OC [Compound 98] | 0.01 to 10 | 500 to 5000 | 5000 to 100000 |
| CNC(=O)c1nnc(NC(=O)C2CC2)cc1Nc1cccc(-c2ccc(C(=O)N(C)Cc3ccon3)nc2)c1OC [Compound 99] | 0.01 to 10 | 500 to 5000 | 5000 to 100000 |
| CNC(=O)c1nnc(NC(=O)C2CC2)cc1Nc1cccc(-c2ccc(C(=O)N(C)Cc3cn(C)nn3)nc2)c1OC [Compound 100] | 0.01 to 10 | 500 to 5000 | 500 to 5000 |
| CNC(=O)c1nnc(NC(=O)C2CC2)cc1Nc1cccc(-c2ccc(C(=O)N(C)Cc3cn(C)nc3C)nc2)c1OC [Compound 101] | 0.01 to 10 | 50 to 500 | 50 to 500 |
| CNC(=O)c1nnc(NC(=O)C2CC2)cc1Nc1cccc(-c2ccc(C(=O)N(C)Cc3nc(C)no3)nc2)c1OC [Compound 102] | 0.01 to 10 | 500 to 5000 | 500 to 5000 |
| CNC(=O)c1nnc(NC(=O)C2CC2)cc1Nc1ccc(C)c(-c2ccc(C(=O)N(C)Cc3cc(C#N)ccn3)cc2)c1OC [Compound 103] | 0.01 to 10 | 50 to 500 | 500 to 5000 |
| CNC(=O)c1nnc(NC(=O)C2CC2)cc1Nc1cccc(-c2cnn(C3CN(Cc4ncn(C)n4)C3)c2)c1OC [Compound 104] | 0.01 to 10 | 500 to 5000 | 500 to 5000 |
| [2H]C([2H])([2H])NC(=O)c1nnc(NC(=O)C2CC2)cc1Nc1cccc(-c2cnn(C3CN(Cc4ccccn4)C3)c2)c1OC [Compound 105] | 0.01 to 10 | 50 to 500 | 50 to 500 |
| CNC(=O)c1nnc(NC(=O)C2CC2)cc1Nc1cccc(-c2cnn(C3CN(Cc4cccc(C)n4)C3)c2)c1OC [Compound 106] | 0.01 to 10 | 50 to 500 | 50 to 500 |
| CNC(=O)c1nnc(NC(=O)C2CC2)cc1Nc1cccc(-c2cnn(C3CN(Cc4cccc(OC)n4)C3)c2)c1OC [Compound 107] | 0.01 to 10 | 50 to 500 | 50 to 500 |
| CNC(=O)c1nnc(NC(=O)C2CC2)cc1Nc1cccc(-c2ccc(C(=O)N3CCc4cccnc4C3)nc2)c1OC [Compound 108] | 10 to 50 | 5000 to 100000 | 5000 to 100000 |
